Measured values as given in paper PMC12250785, “Synthesis of Novel 7-Phenyl-2,3-Dihydropyrrolo[2,1-b]Quinazolin-9(1H)-ones as Cholinesterase Inhibitors Targeting Alzheimer’s Disease Through Suzuki–Miyaura Cross-Coupling Reaction” (Molecules, 2025).

How the values were obtained:
AChE (E.C. 3.1.1.7) = AChE (E.C. 3.1.1.7) (Electrophorus electricus, UniProt O42275); experiment: biochemical; conditions: for IC50: AChE from electric eel, Ellman method, means ± SD of triplicate independent experiments; for Selectivity (BChE/AChE): BChE IC50/AChE IC50
Experimental: The results are presented as IC50 values.
The total volume of the reaction was 200 μL, consisting of 2 μL of sample, 138 μL of Tris-HCl buffer solution containing acetylcholinesterase (final concentration of 0.03 U/mL), and a control consisting of Tris-HCl buffer solution without the enzyme. The reaction was incubated at room temperature for 10 min. Following this, 20 μL of […] (5 mM) was added, and the reaction was conducted at 37 °C for an additional 10 min.

BChE (E.C. 3.1.1.8) = BChE (E.C. 3.1.1.8) (Equus caballus, UniProt P81908); experiment: biochemical; conditions: BChE from horse serum; Ellman method; means ± SD of triplicate independent experiments
[1] = Solubility in common organic solvents; type: physicochemical

Sequence of BChE (E.C. 3.1.1.8) (P81908 whole entry): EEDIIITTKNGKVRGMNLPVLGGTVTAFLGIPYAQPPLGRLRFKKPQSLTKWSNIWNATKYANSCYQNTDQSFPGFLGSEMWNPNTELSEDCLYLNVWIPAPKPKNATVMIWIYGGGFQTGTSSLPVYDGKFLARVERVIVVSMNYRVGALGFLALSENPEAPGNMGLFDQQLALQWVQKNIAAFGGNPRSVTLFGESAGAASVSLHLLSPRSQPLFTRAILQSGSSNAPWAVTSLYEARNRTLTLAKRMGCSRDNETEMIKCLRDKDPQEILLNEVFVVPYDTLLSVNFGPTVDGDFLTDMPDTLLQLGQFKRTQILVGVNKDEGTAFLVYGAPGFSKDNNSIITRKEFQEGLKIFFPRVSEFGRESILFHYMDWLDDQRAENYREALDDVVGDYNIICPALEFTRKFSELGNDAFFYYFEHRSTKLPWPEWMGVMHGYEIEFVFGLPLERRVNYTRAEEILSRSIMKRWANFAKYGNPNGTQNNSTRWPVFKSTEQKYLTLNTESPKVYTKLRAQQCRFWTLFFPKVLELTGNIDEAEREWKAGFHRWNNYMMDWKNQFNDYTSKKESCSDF
Sequence of AChE (E.C. 3.1.1.7) (O42275 24-633): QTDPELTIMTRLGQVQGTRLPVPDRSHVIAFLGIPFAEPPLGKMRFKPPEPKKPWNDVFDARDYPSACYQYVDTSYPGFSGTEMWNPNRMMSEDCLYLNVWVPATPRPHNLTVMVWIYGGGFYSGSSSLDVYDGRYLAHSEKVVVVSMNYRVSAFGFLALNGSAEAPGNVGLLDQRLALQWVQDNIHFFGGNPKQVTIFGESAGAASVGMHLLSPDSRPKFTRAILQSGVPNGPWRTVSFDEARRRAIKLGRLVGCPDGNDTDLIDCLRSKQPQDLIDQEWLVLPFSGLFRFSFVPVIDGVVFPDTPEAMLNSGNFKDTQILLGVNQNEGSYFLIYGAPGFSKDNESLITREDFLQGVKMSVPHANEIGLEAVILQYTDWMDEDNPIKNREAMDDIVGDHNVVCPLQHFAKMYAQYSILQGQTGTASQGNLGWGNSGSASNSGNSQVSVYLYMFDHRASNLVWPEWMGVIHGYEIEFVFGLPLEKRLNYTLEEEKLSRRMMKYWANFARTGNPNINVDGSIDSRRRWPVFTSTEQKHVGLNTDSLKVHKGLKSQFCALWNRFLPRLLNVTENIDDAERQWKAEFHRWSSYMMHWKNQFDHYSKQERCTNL

## O=c1c2cc(-c3ccc(Cl)cc3)ccc2nc2n1CCC2 [3a, 7-(4-Chlorophenyl)-2,3-dihydropyrrolo[2,1-b]quinazolin-9(1H)-one]
AChE (E.C. 3.1.1.7)
  IC50: > 50 µM
BChE (E.C. 3.1.1.8)
  IC50: > 50 µM

## O=c1c2cc(-c3ccc(F)cc3)ccc2nc2n1CCC2 [3b, 7-(4-Fluorophenyl)-2,3-dihydropyrrolo[2,1-b]quinazolin-9(1H)-one]
AChE (E.C. 3.1.1.7)
  IC50: 34.8 ± 1.21 µM
  Selectivity (BChE/AChE): 0.5
BChE (E.C. 3.1.1.8)
  IC50: 15.5 ± 0.41 µM

## O=c1c2cc(-c3ccc(C(F)(F)F)cc3)ccc2nc2n1CCC2 [3c, 7-(4-(Trifluoromethyl)phenyl)-2,3-dihydropyrrolo[2,1-b]quinazolin-9(1H)-one]
AChE (E.C. 3.1.1.7)
  IC50: > 50 µM
BChE (E.C. 3.1.1.8)
  IC50: > 50 µM

## COc1ccc(-c2ccc3nc4n(c(=O)c3c2)CCC4)cc1 [3d, 7-(4-Methoxyphenyl)-2,3-dihydropyrrolo[2,1-b]quinazolin-9(1H)-one]
AChE (E.C. 3.1.1.7)
  IC50: 16.2 ± 0.39 µM
BChE (E.C. 3.1.1.8)
  IC50: > 50 µM

## CC(C)(C)c1ccc(-c2ccc3nc4n(c(=O)c3c2)CCC4)cc1 [3e, 7-(4-(tert-Butyl)phenyl)-2,3-dihydropyrrolo[2,1-b]quinazolin-9(1H)-one]
AChE (E.C. 3.1.1.7)
  IC50: > 50 µM
BChE (E.C. 3.1.1.8)
  IC50: > 50 µM

## Cc1cccc(-c2ccc3nc4n(c(=O)c3c2)CCC4)c1 [3f, 7-(m-Tolyl)-2,3-dihydropyrrolo[2,1-b]quinazolin-9(1H)-one]
AChE (E.C. 3.1.1.7)
  IC50: 28.7 ± 0.69 µM
  Selectivity (BChE/AChE): 0.8
BChE (E.C. 3.1.1.8)
  IC50: 22.8 ± 0.49 µM

## O=c1c2cc(-c3cccc(Cl)c3)ccc2nc2n1CCC2 [3g, 7-(3-Chlorophenyl)-2,3-dihydropyrrolo[2,1-b]quinazolin-9(1H)-one]
AChE (E.C. 3.1.1.7)
  IC50: 27.9 ± 0.72 µM
  Selectivity (BChE/AChE): 0.8
BChE (E.C. 3.1.1.8)
  IC50: 22.2 ± 0.48 µM

## COc1cccc(-c2ccc3nc4n(c(=O)c3c2)CCC4)c1 [3h, 7-(3-Methoxyphenyl)-2,3-dihydropyrrolo[2,1-b]quinazolin-9(1H)-one]
AChE (E.C. 3.1.1.7)
  IC50: 17.7 ± 0.84 µM
  Selectivity (BChE/AChE): 2.4
BChE (E.C. 3.1.1.8)
  IC50: 41.8 ± 1.28 µM

## CC(=O)c1cccc(-c2ccc3nc4n(c(=O)c3c2)CCC4)c1 [3i, 7-(3-Acetylphenyl)-2,3-dihydropyrrolo[2,1-b]quinazolin-9(1H)-one]
AChE (E.C. 3.1.1.7)
  IC50: 33.2 ± 1.01 µM
BChE (E.C. 3.1.1.8)
  IC50: > 50 µM

## Cc1ccccc1-c1ccc2nc3n(c(=O)c2c1)CCC3 [3j, 7-(o-Tolyl)-2,3-dihydropyrrolo[2,1-b]quinazolin-9(1H)-one]
AChE (E.C. 3.1.1.7)
  IC50: > 50 µM
BChE (E.C. 3.1.1.8)
  IC50: 11.1 ± 0.37 µM

## O=c1c2cc(-c3ccc(F)c(Cl)c3)ccc2nc2n1CCC2 [3k, 7-(3-Chloro-4-fluorophenyl)-2,3-dihydropyrrolo[2,1-b]quinazolin-9(1H)-one]
AChE (E.C. 3.1.1.7)
  IC50: 6.08 ± 0.26 µM
  Selectivity (BChE/AChE): 4.8
BChE (E.C. 3.1.1.8)
  IC50: 29 ± 0.74 µM

## COc1ccc(Cl)cc1-c1ccc2nc3n(c(=O)c2c1)CCC3 [3l, 7-(5-Chloro-2-methoxyphenyl)-2,3-dihydropyrrolo[2,1-b]quinazolin-9(1H)-one]
AChE (E.C. 3.1.1.7)
  IC50: 14.7 ± 0.48 µM
  Selectivity (BChE/AChE): 2.0
BChE (E.C. 3.1.1.8)
  IC50: 28.5 ± 0.46 µM

## O=c1c2cc(-c3cccc4ccccc34)ccc2nc2n1CCC2 [3m, 7-(Naphthalen-1-yl)-2,3-dihydropyrrolo[2,1-b]quinazolin-9(1H)-one]
AChE (E.C. 3.1.1.7)
  IC50: > 50 µM
BChE (E.C. 3.1.1.8)
  IC50: 32 ± 0.72 µM

## O=c1c2cc(-c3ccccc3)ccc2nc2n1CCC2 [3n, 7-Phenyl-2,3-dihydropyrrolo[2,1-b]quinazolin-9(1H)-one]
AChE (E.C. 3.1.1.7)
  IC50: 35.9 ± 1.03 µM
  Selectivity (BChE/AChE): 0.64
BChE (E.C. 3.1.1.8)
  IC50: 22.9 ± 0.57 µM

## O=c1c2cc(-c3ccc(Cl)cc3)ccc2nc2n1CCCC2 [4a, 2-(4-Chlorophenyl)-6,7,8,9-tetrahydro-11H-pyrido[2,1-b]quinazolin-11-one]
AChE (E.C. 3.1.1.7)
  IC50: > 50 µM
BChE (E.C. 3.1.1.8)
  IC50: > 50 µM

## O=c1c2cc(-c3ccc(F)cc3)ccc2nc2n1CCCC2 [4b, 2-(4-Fluorophenyl)-6,7,8,9-tetrahydro-11H-pyrido[2,1-b]quinazolin-11-one]
AChE (E.C. 3.1.1.7)
  IC50: 34.6 ± 1.27 µM
BChE (E.C. 3.1.1.8)
  IC50: > 50 µM

## O=c1c2cc(-c3ccc(C(F)(F)F)cc3)ccc2nc2n1CCCC2 [4c, 2-(4-(Trifluoromethyl)phenyl)-6,7,8,9-tetrahydro-11H-pyrido[2,1-b]quinazolin-11-one]
AChE (E.C. 3.1.1.7)
  IC50: > 50 µM
BChE (E.C. 3.1.1.8)
  IC50: > 50 µM

## COc1ccc(-c2ccc3nc4n(c(=O)c3c2)CCCC4)cc1 [4d, 2-(4-Methoxyphenyl)-6,7,8,9-tetrahydro-11H-pyrido[2,1-b]quinazolin-11-one]
AChE (E.C. 3.1.1.7)
  IC50: 33.2 ± 1.08 µM
BChE (E.C. 3.1.1.8)
  IC50: > 50 µM

## CC(C)(C)c1ccc(-c2ccc3nc4n(c(=O)c3c2)CCCC4)cc1 [4e, 2-(4-(tert-Butyl)phenyl)-6,7,8,9-tetrahydro-11H-pyrido[2,1-b]quinazolin-11-one]
AChE (E.C. 3.1.1.7)
  IC50: > 50 µM
BChE (E.C. 3.1.1.8)
  IC50: > 50 µM

## Cc1cccc(-c2ccc3nc4n(c(=O)c3c2)CCCC4)c1 [4f, 2-(m-Tolyl)-6,7,8,9-tetrahydro-11H-pyrido[2,1-b]quinazolin-11-one]
AChE (E.C. 3.1.1.7)
  IC50: 6.39 ± 0.31 µM
  Selectivity (BChE/AChE): 1.7
[1]
  solubility in common organic solvents: poor solubility
BChE (E.C. 3.1.1.8)
  IC50: 10.7 ± 0.64 µM

## O=c1c2cc(-c3cccc(Cl)c3)ccc2nc2n1CCCC2 [4g, 2-(3-Chlorophenyl)-6,7,8,9-tetrahydro-11H-pyrido[2,1-b]quinazolin-11-one]
AChE (E.C. 3.1.1.7)
  IC50: 21.3 ± 0.88 µM
  Selectivity (BChE/AChE): 1.1
BChE (E.C. 3.1.1.8)
  IC50: 22.9 ± 0.76 µM

## COc1cccc(-c2ccc3nc4n(c(=O)c3c2)CCCC4)c1 [4h, 2-(3-Methoxyphenyl)-6,7,8,9-tetrahydro-11H-pyrido[2,1-b]quinazolin-11-one]
AChE (E.C. 3.1.1.7)
  IC50: 42.7 ± 1.8 µM
  Selectivity (BChE/AChE): 1
BChE (E.C. 3.1.1.8)
  IC50: 42.3 ± 1.23 µM

## CC(=O)c1cccc(-c2ccc3nc4n(c(=O)c3c2)CCCC4)c1 [4i, 2-(3-Acetylphenyl)-6,7,8,9-tetrahydro-11H-pyrido[2,1-b]quinazolin-11-one]
AChE (E.C. 3.1.1.7)
  IC50: 11.1 ± 0.73 µM
BChE (E.C. 3.1.1.8)
  IC50: > 50 µM

## Cc1ccccc1-c1ccc2nc3n(c(=O)c2c1)CCCC3 [4j, 2-(o-Tolyl)-6,7,8,9-tetrahydro-11H-pyrido[2,1-b]quinazolin-11-one]
AChE (E.C. 3.1.1.7)
  IC50: > 50 µM
BChE (E.C. 3.1.1.8)
  IC50: > 50 µM

## O=c1c2cc(-c3ccc(F)c(Cl)c3)ccc2nc2n1CCCC2 [4k, 2-(3-Chloro-4-fluorophenyl)-6,7,8,9-tetrahydro-11H-pyrido[2,1-b]quinazolin-11-one]
AChE (E.C. 3.1.1.7)
  IC50: > 50 µM
BChE (E.C. 3.1.1.8)
  IC50: > 50 µM

## COc1ccc(Cl)cc1-c1ccc2nc3n(c(=O)c2c1)CCCC3 [4l, 2-(5-Chloro-2-methoxyphenyl)-6,7,8,9-tetrahydro-11H-pyrido[2,1-b]quinazolin-11-one]
AChE (E.C. 3.1.1.7)
  IC50: > 50 µM
BChE (E.C. 3.1.1.8)
  IC50: 46.6 ± 1.45 µM

## O=c1c2cc(-c3cccc4ccccc34)ccc2nc2n1CCCC2 [4m, 2-(Naphthalen-1-yl)-6,7,8,9-tetrahydro-11H-pyrido[2,1-b]quinazolin-11-one]
AChE (E.C. 3.1.1.7)
  IC50: > 50 µM
BChE (E.C. 3.1.1.8)
  IC50: > 50 µM

## O=c1c2cc(-c3ccccc3C(F)(F)F)ccc2nc2n1CCCC2 [4n, 2-(2-(Trifluoromethyl)phenyl)-6,7,8,9-tetrahydro-11H-pyrido[2,1-b]quinazolin-11-one]
AChE (E.C. 3.1.1.7)
  IC50: > 50 µM
BChE (E.C. 3.1.1.8)
  IC50: 43.2 ± 1.27 µM
